# Measured values as given in US20250073346A1, “PHARMACEUTICAL COMBINATIONS” (Oxford Bio Therapeutics Ltd, priority 2021, published 2025).
# B1: LY75_A1 monoclonal antibody (antibody, human IgG1, kappa, V domains shown)
# VH: EVQLVESGGGLVKPGGSLRLSCAASGFTYSNAWMSWVRQAPGKGLEWVGRIKSKTDGGTTDYAAPVQGRFTISRDDSKNTLYLQMNSLKTEDTAVYYCTIFGVVSFDYWGQGTLVTVSS
# VL: DVQMTQSPSSLSASVGDRVTITCRASQSISDYLSWYQQRPGKAPNLLIYAASNLKTGVPSRFSGSGSGTDFTLTISTLQPEDFATYYCQQSYRSPWTFGQGTKVEIKR
# notes: Human antibody, detected with goat anti-human IgG Fab in the immunohistochemistry; also called anti-LY75_A1
# Assays:
# HT-29 cells = assay: Platin after 72 hr LY75_A1 pre-treatment, cell viability (cell-titer glo); format: cell-based
# Description: (§1) Cells were diluted in excess media and spun down. […] The plate was Incubated for 24 hr at 37° C. to allow cells to adhere and become acclimatized prior to addition of drug. The plates were incubated for 72 hr at 37° C. After 72 hr, the media was removed and replaced with either cisplatin or oxaliplatin at various concentrations (see figures) in 100 ul media before incubation for a further 48 hr.
# (§2) After the incubation period, the plate was removed from the incubator and left at room temperature for 30 minutes. Media was removed from the plate which was washed twice with 200 ul PBS. The plate was then treated with cell-titer glo (CTG) following the manufacturer's protocol (Promega, Catalog No. G9681). Briefly, 200 ul CTG solution/well was added before incubating at RT on a plate rotator at low speed for 2 min before incubation in the dark for a further 10 min.
# (§3) The plates were removed and the viability under the various conditions calculated.
# N87 cells = assay: as above; format: cell-based; conditions: for reduction of IC50 in cells pre-treated with LY75_A1: pre-treated with LY75_A1 for 72 hours
# Description: as §1, §2, §3
# HPAFII cells = assay: as above; format: cell-based; conditions: for viability of cells: HPAFII, ~50 uM oxaliplatin
# Description: as §1, §2, §3
# [1] = tested on: NCI-N87 gastric cancer xenograft; assay: Subcutaneous NCI-N87 gastric cancer xenograft model; format: in vivo, mouse
# Description: The animals were fed ad libitum water (reverse osmosis, 1 ppm CI) and NIH 31 Modified and Irradiated Lab Diet® consisting standard rodent chow. The mice were housed on Crushed corncob bedding, autoclaved; changed weekly on a 12-hour light cycle at 20-22° C. (68-72° F.) and 40-60% humidity.
# The NCI-N87 tumor cells were maintained in vitro with RMPI 1640 medium supplemented with 10% fetal bovine serum at 37° C. in an atmosphere of 5% CO2 in air. The cells in exponential growth phase were harvested and quantitated by cell counter before tumor inoculation.
# Each mouse was inoculated subcutaneously in the right upper flank region with NCI-N87 tumor cells (1×10^7) in PBS mixed with matrigel (1:1) for tumor development. After tumor inoculation, the animals were checked daily for morbidity and mortality. During routine monitoring, the animals were checked for any effects of tumor growth and treatments on behavior such as mobility, food and water consumption, body weight gain/loss (Body weights would be measured two times per week after randomization), eye/hair matting and any other abnormalities. Mortality and observed clinical signs were recorded for individual animals in detail.
# Tumor volumes were measured two times per week after randomization in two dimensions using a caliper, and the volume was expressed in mm3 using the formula: V=(L×W×W)/2, where V is tumor volume, L is tumor length (the longest tumor dimension) and W is tumor width (the longest tumor dimension perpendicular to L). Dosing as well as tumor and body weight measurements were conducted in a Laminar Flow Cabinet.
# The randomization started when the mean tumor size reached approximately 183 mm3. […]
# Each animal was euthanized for tumor progression (TP) when its tumor reached the […] endpoint. The time to endpoint (TTE) for each mouse was calculated with the following equation: TTE=log (endpoint volume)−b/m. […] Any animal determined to have died from treatment-related (TR) causes was to be assigned a TTE value equal to the day of death. […]
# Treatment outcome was evaluated from tumor growth delay (TGD), which was defined as the increase in the median TTE for a treatment group compared to the control group: TGD=T−C expressed in days or as a percentage of the median TTE for the control group % TGD=T−C/C×100 where, T=median TTE for a treatment group, C=median TTE for the control group.
# Animals were weighed daily on Days 1-5, and then twice weekly until the end of the study. Group mean BW nadirs were determined before more than 50% of the animals in a group exited the study. The mice were observed frequently for health and overt signs of any adverse TR side effects, and clinical observations were recorded, if observed. […]
# LY75 = target: T1, LY75 (Homo sapiens, UniProt O60449); assay: Immunohistochemistry with anti-LY75 antibody on FFPE Triple Negative breast cancer samples
# T1 construct: tissue US Biomax Inc. or Origene; host or cells: FFPE triple negative breast cancer tissue sections/arrays
# T1 sequence (O60449 28-1722): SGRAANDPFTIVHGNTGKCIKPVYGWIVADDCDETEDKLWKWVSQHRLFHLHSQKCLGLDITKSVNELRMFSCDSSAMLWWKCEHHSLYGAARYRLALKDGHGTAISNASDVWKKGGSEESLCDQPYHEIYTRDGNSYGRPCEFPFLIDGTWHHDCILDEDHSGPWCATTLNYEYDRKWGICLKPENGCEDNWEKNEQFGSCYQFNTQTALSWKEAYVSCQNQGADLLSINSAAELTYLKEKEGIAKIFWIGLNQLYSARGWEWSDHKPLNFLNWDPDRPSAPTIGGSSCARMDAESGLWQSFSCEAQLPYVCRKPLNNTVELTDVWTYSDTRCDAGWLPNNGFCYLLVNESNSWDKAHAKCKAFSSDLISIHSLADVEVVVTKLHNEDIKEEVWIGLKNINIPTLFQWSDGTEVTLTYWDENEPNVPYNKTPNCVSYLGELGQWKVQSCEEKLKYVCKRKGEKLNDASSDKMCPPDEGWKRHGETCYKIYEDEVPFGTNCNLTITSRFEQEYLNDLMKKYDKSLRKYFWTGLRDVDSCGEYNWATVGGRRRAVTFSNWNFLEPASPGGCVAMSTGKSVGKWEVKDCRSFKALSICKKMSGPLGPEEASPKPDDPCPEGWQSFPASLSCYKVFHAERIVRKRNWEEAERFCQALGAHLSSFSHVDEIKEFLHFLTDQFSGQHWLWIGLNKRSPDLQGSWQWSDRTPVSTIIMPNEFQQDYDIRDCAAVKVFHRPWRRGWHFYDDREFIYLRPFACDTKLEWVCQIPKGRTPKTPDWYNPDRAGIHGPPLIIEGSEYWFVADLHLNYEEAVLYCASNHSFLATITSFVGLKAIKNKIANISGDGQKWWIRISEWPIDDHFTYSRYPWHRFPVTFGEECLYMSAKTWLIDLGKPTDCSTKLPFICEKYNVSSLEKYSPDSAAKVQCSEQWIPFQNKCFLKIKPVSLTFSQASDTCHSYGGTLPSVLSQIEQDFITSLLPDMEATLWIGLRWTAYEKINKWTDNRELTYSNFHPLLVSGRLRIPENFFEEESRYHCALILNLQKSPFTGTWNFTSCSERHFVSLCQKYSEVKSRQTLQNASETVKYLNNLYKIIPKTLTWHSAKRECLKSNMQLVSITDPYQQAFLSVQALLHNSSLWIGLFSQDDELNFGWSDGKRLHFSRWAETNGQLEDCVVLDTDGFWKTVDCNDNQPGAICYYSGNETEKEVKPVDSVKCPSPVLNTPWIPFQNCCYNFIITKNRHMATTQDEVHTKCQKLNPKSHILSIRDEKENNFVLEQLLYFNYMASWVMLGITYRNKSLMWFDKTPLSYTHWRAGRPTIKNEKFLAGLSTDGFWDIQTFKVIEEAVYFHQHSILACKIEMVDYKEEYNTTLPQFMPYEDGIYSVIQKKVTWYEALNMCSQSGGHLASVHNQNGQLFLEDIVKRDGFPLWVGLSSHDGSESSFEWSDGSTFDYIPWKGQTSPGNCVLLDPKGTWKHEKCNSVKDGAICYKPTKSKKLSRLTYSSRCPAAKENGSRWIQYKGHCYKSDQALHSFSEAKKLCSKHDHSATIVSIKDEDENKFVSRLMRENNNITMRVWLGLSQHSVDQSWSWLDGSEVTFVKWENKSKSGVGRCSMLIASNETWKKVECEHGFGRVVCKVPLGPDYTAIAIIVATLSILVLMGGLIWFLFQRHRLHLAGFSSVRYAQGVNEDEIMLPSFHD
# Description: (§4) Using the human monoclonal antibodies specific to LY75, immunohistochemistry was performed on FFPE HT-29 and A549 cell pellets, FFPE non-Hodgkin's lymphoma and pancreatic cancer arrays, and fresh frozen lymphoma/leukaemia tumours, ovarian cancer, pancreatic cancer, and breast cancer sections and a normal tissue array.
# FFPE slides were deparaffinised in xylene (2×3 minutes) then rehydrated through 1:1 xylene: 100% ethanol (1×3 minutes), 100% ethanol (2×3 minutes), 95% ethanol (1×3 minutes), 70% ethanol (1×3 minutes), 50% ethanol (1×3 minutes), and tap water (1×3 minutes).
# (§5) The LY75 antigen was retrieved using microwave heat, high power until boiling then low power for 10 minutes in 50 mL 1×citrate buffer in a Coplin jar. Slides were then left to cool to room temperature for a further 15 min, then washed in tap water, 3 minutes. Circles were drawn around each tissue section/TMA with a hydrophobic barrier pen and slides were then washed 3 times in PBS, 3 minutes each wash.
# The primary anti-LY75 antibody was diluted in serum free protein block (SFPB) to obtain a solution with a concentration 20-fold greater than the final desired concentration (20 μg/mL for 1 μg/mL final). The secondary antibody, goat anti-human immunoglobulin G (IgG) antigen-binding fragment (Fab), was prepared similarly in SFPB to create a solution of equal concentration. […]
# [2] = target: T2, LY75 (DEC-205), lymphocyte antigen 75 (human, UniProt O60449 28-1722); assay: immunohistochemistry on FFPE human tumour tissue sections
# T2 construct: Endogenous LY75 in human tumour tissue sections and on human tumour cell lines
# T2 sequence (O60449 28-1722 limits assumed): as the sequence (O60449 28-1722) above
# Description: as §4, §5
# Meanwhile, endogenous tissue peroxidase activity was blocked by incubating tissues with peroxidase suppressor for 5-10 minutes at RT in a humidified chamber. Slides were then washed in PBS 3×3 minutes each wash. Tissues were incubated in SFPB for 30 minutes at room temperature in a humidified chamber. Final staining complexes were applied to each tissue section and/or microarray, and the slides were incubated for 30 min at room temperature in a humidified chamber. Slides were then washed once in PBS and once in PBST (PBS+0.125% Tween-20), 3 minutes each wash. […]
# [3] = HT29 cells pretreated with 0.5 nM LY75_A1 for 72 hours
# [4] = HT29 cells pretreated with 2 nM LY75_A1 for 72 hours
# [5] = N87 cells pretreated with 1 nM LY75_A1 for 72 hours
# [6] = N87 cells pretreated with 10 nM LY75_A1 for 72 hours
# [7] = single agent, single i.v. dose day 1 (OBT076 1 mg/kg; Oxaliplatin 5 mg/kg)
molecule,measurement,setting,value
"N.N.[Cl][Pt][Cl] [Cisplatin, cis-diamminedichloroplatinum(II)]",IC50,HT-29 cells; [3],44.6 µM
same,IC50,HT-29 cells; [4],18.7 µM
same,IC50,"HT-29 cells; HT29 cells, cisplatin alone, 48 hr",44.7 µM
same,viability of cells,"HT-29 cells; HT-29, ~10 uM cisplatin, not pre-treated, FIG. 5B",no cell death
same,viability of cells,"HT-29 cells; HT-29, ~10 uM cisplatin, pre-treated with 2 nM LY75_A1, FIG. 5B",significantly lower than those which are not pre-treated
same,viability of cells,"N87 cells; N87, ~3 uM cisplatin, not pre-treated, FIG. 5E",no cell death
same,viability of cells,"N87 cells; N87, ~3 uM cisplatin, pre-treated with 1 or 10 nM LY75_A1, FIG. 5E",significantly lower than those which are not pre-treated
same,IC50,N87 cells; [5],3.5 µM
same,IC50,N87 cells; [6],0.9 µM
same,IC50,"N87 cells; N87 cells, cisplatin alone, 48 hr",10 µM
same,reduction of IC50 in cells pre-treated with LY75_A1,N87 cells; N87 cells,10 fold
O=C1[O][Pt]2([NH][C@@H]3CCCC[C@H]3[NH]2)[O]C1=O [Oxaliplatin],IC50,HPAFII cells; HPAFII cells pretreated with 1 nM LY75_A1 for 72 hours,85.4 µM
same,IC50,HPAFII cells; HPAFII cells pretreated with 3 nM LY75_A1 for 72 hours,62.1 µM
same,IC50,HPAFII cells; HPAFII cells pretreated with 10 nM LY75_A1 for 72 hours,58.8 µM
same,IC50,"HPAFII cells; HPAFII cells, oxaliplatin alone, 48 hr",~256 µM
same,reduction of IC50 in cells pre-treated with LY75_A1,"HPAFII cells; HPAFII cells, pre-treated with LY75_A1 for 72 hours",approximately 4 fold
same,viability of cells,"HPAFII cells; not pre-treated, FIG. 5C",no cell death
same,viability of cells,"HPAFII cells; pre-treated with all concentrations (1, 3, 10 nM) of LY75_A1, FIG. 5C",significantly lower than those which are not pre-treated
same,IC50,HT-29 cells; [3],55.1 µM
same,IC50,HT-29 cells; [4],32.7 µM
same,IC50,"HT-29 cells; HT29 cells, oxaliplatin alone, 48 hr",66.8 µM
same,viability of cells,"HT-29 cells; HT-29, ~10 uM oxaliplatin, not pre-treated, FIG. 5A",no cell death
same,viability of cells,"HT-29 cells; HT-29, ~10 uM oxaliplatin, pre-treated with 2 nM LY75_A1, FIG. 5A",significantly lower than those which are not pre-treated
same,viability of cells,"N87 cells; N87, ~10 uM oxaliplatin, not pre-treated, FIG. 5D",no cell death
same,viability of cells,"N87 cells; N87, ~10 uM oxaliplatin, pre-treated with 1 or 10 nM LY75_A1, FIG. 5D",significantly lower than those which are not pre-treated
same,IC50,N87 cells; [5],14.1 µM
same,IC50,N87 cells; [6],1 µM
same,IC50,"N87 cells; N87 cells, oxaliplatin alone, 48 hr",44.5 µM
same,reduction of IC50 in cells pre-treated with LY75_A1,N87 cells; N87 cells,44 fold
same,mice that had died,"[1]; by Day 81, single agent alone",~71%
same,TGI on day 60,[1]; [7],0.49%
same,Tumor Size (mm^3) on day 60,[1]; [7],1969.92 +/− 258.93 mm^3
same,% Survival,"[1]; to Day 81, single agent, single i.v. dose day 1 (OBT076 1 mg/kg; Oxaliplatin 5 mg/kg)",28.57%
B1,sections exhibited robust (+++) staining,LY75,55%
same,sections showed positive staining,LY75,77%
same,binding result,[2],binds
